This is an account of results in publication PMC6133092, “Synthesis of 2-alkylthio-N-(quinazolin-2-yl)benzenesulfonamide derivatives: anticancer activity, QSAR studies, and metabolic stability” (Monatshefte Fur Chemie, 2018).

What all share (type): cell-based
Assay [1] relates to UO-31. The assay is described as follows: NCI-60 single dose screen, UO-31. The settings on record: Homo sapiens, Renal cancer, single concentration 10^−5 M, read-out: IGP (inhibition growth percent) UO-31. The essentials: (§1)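 Growth inhibition is the reported read-out, obtained when the National Cancer Institute exposed the panel lines to compound at one concentration of 10 μM following its standard NCI-60 DTP protocol.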

Assay [2] concerns HCT-116. The experiment in a line: NCI-60 single dose screen, HCT-116. To be noted: Homo sapiens, Colon cancer, single concentration 10^−5 M, read-out: IGP (inhibition growth percent) HCT-116. The essentials:
as §1

Assay [3] relates to HeLa (cervical cancer). The assay is described as follows: MTT cell viability assay, HeLa. To be noted: Homo sapiens. A general note: Formazan colour is commonly taken as a measure of viable cells.
For assay [4], the system named is PC-3. The assay is described as follows: NCI-60 single dose screen, PC-3. To be noted: Homo sapiens, Prostate cancer, single concentration 10^−5 M, read-out: IGP (inhibition growth percent) PC-3. The essentials: as §1
Assay [5] concerns A549/ATCC. The experiment in a line: NCI-60 single dose screen, A549/ATCC. To be noted: Homo sapiens, A549, NSCLC; single concentration 10^−5 M; read-out: IGP (inhibition growth percent) A549/ATCC. In short, it runs like this:
as §1

Assay [6] relates to NCI-H522. The assay is described as follows: NCI-60 single dose screen, NCI-H522. The settings on record: Homo sapiens, NSCLC, single concentration 10^−5 M, read-out: IGP (inhibition growth percent) NCI-H522. The essentials: as §1
Assay [7] relates to HOP-92. The assay is described as follows: NCI-60 single dose screen, HOP-92. The settings on record: Homo sapiens, NSCLC, single concentration 10^−5 M, read-out: IGP (inhibition growth percent) HOP-92. In short, it runs like this:
as §1

The subject of assay [8] is MCF-7. The experiment in a line: NCI-60 single dose screen, MCF-7. To be noted: Homo sapiens, MCF7; Breast cancer; single concentration 10^−5 M; read-out: IGP (inhibition growth percent) MCF-7. The essentials:
as §1

Assay [9] concerns RPMI-8226. The assay is described as follows: NCI-60 single dose screen, RPMI-8226. To be noted: Homo sapiens, RPMI-8226, Leukemia; single concentration 10^−5 M; read-out: IGP (inhibition growth percent) RPMI-8226. In short, it runs like this: as §1
Where [10] appears, read: Table 4, repeats Table 1 values without SD and unit.

As for `O=C(Nc1ccccc1)c1cc(S(=O)(=O)Nc2nc(-c3ccccc3)c3ccccc3n2)c(SCc2ccccc2)cc1Cl` [Compound 18, 2-Benzylthio-4-chloro-5-phenylcarbamoyl-N-(4-phenylquinazolin-2-yl)benzenesulfonamide], the inhibition at 10 µM is 3% in assay [1]; 31% in [2]; 24% in assay [4]; approximately 50% in assay [5]; 25% in [6]; 26% in assay [7]. Moreover, the figures for the inhibition at 10 µM in [8] and in assay [9] were 14% and approximately 50%, respectively. Moreover, the concentration for half-maximal inhibition (IC50) was found to be 46 ± 2 µM in assay [3] (MTT, 72 h, mean ± SD) and 46 µM in assay [3] (setting [10]).
Consider `O=C(Nc1ccc(Cl)cc1)c1cc(S(=O)(=O)Nc2nc(-c3ccccc3)c3ccccc3n2)c(SCc2ccccc2)cc1Cl` [Compound 22, 2-Benzylthio-4-chloro-5-(4-chlorophenylcarbamoyl)-N-(4-phenylquinazolin-2-yl)benzenesulfonamide], for which the inhibition at 10 µM in assay [1] was 35%; in assay [2], 39%; in [4] it was 44%; in [5] it was approximately 50%; in assay [6], 35%; in [7] it was 34%. For the same molecule, the figures for the inhibition at 10 µM in assay [8] and in assay [9] were 20% and approximately 50%, respectively. Also, the 50% inhibitory concentration (IC50) in [3] (MTT, 72 h, mean ± SD) is 42 ± 0.5 µM; in assay [3] (setting [10]), 42 µM.
Take `Cc1ccc(NC(=O)c2cc(S(=O)(=O)Nc3nc(-c4ccccc4)c4ccccc4n3)c(SCc3ccccc3)cc2Cl)cc1` [Compound 24, 2-Benzylthio-4-chloro-5-(4-methylphenylcarbamoyl)-N-(4-phenylquinazolin-2-yl)benzenesulfonamide]: the inhibition at 10 µM in assay [1] was 25%; in assay [2], 44%; in assay [4] it was 49%; in assay [5], approximately 50%; in assay [6], 28%; in [7] it was 26%. Further, the inhibition at 10 µM in [8] is 23%; in [9], approximately 50%. The 50% inhibitory concentration (IC50) in assay [3] (MTT, 72 h, mean ± SD) was 44 ± 3 µM.

As usually defined, the IC50 is the concentration at which inhibition is half-maximal. A lower IC50 goes with greater potency in that assay.
